The values below come from patent publication US10973896B2, “Treatment or prevention of melanoma using photochemical internalization of a melanoma antigen” (PCI Biotech AS, priority 2014, dated 2021).

One data set relates to J774 cells. The experiment in a line: Live cell fluorescence microscopy of J774 cells. The settings on record: for cellular uptake and distribution of Alexa488-labelled OVA: with or without parallel PCI treatment, FIG. 9A. The class given is cell-based, mouse. As for the experimental part: Fifty thousand J774.1 cells (ATCC no. TIB-67 mouse monocyte macrophage cell line) were seeded out on no. 1.5 glass coverslips (Glasswarenfabrik Karl Hecht KG, Sondheim, Germany) in 4-well plates overnight. The cells were incubated with 0.05 or 1,0 μg/ml TPCS2a for 18 hours and washed three times in drug-free culture medium prior to incubation with 25 μg/ml OVA-Alexa488 for four hours. Cells were subsequently washed in ice-cold PBS with Ca^2+ and Mg^2+ prior to microscopy. Images of cellular localization and PCI-induced cytosolic release of OVA was obtained by epi-fluorescence microscopy using a Plan-Apochromat 63×/1.40 Oil differential interference contrast (DIC) objective or 40×/0.95 Plan-Apochromat phase contrast (Korr Ph3 M27) objective with a Zeiss Axioimager Z.1 microscope (Carl Zeiss, Oberkochen, Germany). Fluorescence of Alexa488-labelled OVA was obtained by using a 470/40 nm band pass (BP) excitation filter with a beam splitter at 495 nm and a 525/50 nm BP emission filter. TPCS2a fluorescence was obtained by using a 395-440 nm BP excitation filter with a beam splitter at 460 nm, and a 620 nm long pass filter. Micrographs were recorded with a digital AxioCam MRm camera and processed and analysed by use of the Axiovision Software (Carl Zeiss).

The next data set concerns bone marrow DCs. The data set is described as follows: Fluorescence microscopy of cytosolic antigen release in dendritic cells. It counts as cell-based, C57BL/6 mice. The settings on record: incubated with TPCS2a and Alexa488-labelled OVA. How it is done: Cells (J774.1 (ATCC no. TIB-67 mouse monocyte macrophage cell line) or bone marrow DCs from C57BL/6 mice) were incubated with 0.05 or 1.0 μg/ml TPCS2a and 25 μg/ml OVA-Alexa488 for 18 hours and washed three times in drug-free culture medium prior to incubation for four hours before light activation (3 min LumiSource exposure). The cells were subsequently washed in ice-cold PBS with Ca^2+ and Mg^2+ prior to microscopy. Images of cellular localization and PCI-induced cytosolic release of OVA were obtained by epi-fluorescence microscopy using a Plan-Apochromat 63×/1.40 Oil differential interference contrast (DIC) objective or 40×/0.95 Plan-Apochromat phase contrast (Korr Ph3 M27) objective with a Zeiss Axioimager Z.1 microscope (Carl Zeiss, Oberkochen, Germany). Fluorescence of Alexa488-labelled OVA was obtained by using a 470/40 nm band pass (BP) excitation filter with a beam splitter at 495 nm and a 525/50 nm BP emission filter. TPCS2a fluorescence was obtained by using a 395-440 nm BP excitation filter with a beam splitter at 460 nm, and a 620 nm long pass filter. Micrographs were recorded with a digital AxioCam MRm camera and processed and analysed by use of the Axiovision Software (Carl Zeiss).

The subject of data set [1] is SIINFEKL-specific CD8 T cells. The experiment in a line: PCI immunisation of OT-I-spiked mice, SIINFEKL pentamer flow cytometry (Example 2). It counts as in vivo, C57BL/6 mice. The settings on record: TPCS2a at 10, 25, 50, 100 and 250 μg; data not shown. How it is done:
One day prior to the immunisation, spleens and lymph nodes were isolated from female OT-1 mice, and erythrocytes were removed by lysis (RBC Lysing Buffer Hybri-Max from Sigma-Aldrich) from the homogenised cell suspensions. The remaining cells were washed in PBS, filtered through 70 micron nylon strainers, and 2×10^6 OT-1 cells were administered by intravenous injection into recipient female C57BLJ6 mice; the adoptive transfer of SIINFEKL-specific CD8 T cells facilitates monitoring of the immune response by flow cytometry. One day or 8 hours later, mice were bled by tail bleeding, and the blood was collected in heparin-containing tubes for analysis of the baseline frequency of OVA-specific CD8 T cells.
(§1) Then, the mice were shaved on the abdominal area, and the vaccines, consisting of OVA or of a mixture of OVA and TPCS2a, were injected intradermally using syringes with 29G needles. The vaccines were kept light protected and used within 60 minutes of preparation. The vaccines were given in two injections of 50 μl each, on the left and right side of the abdominal mid line. OVA was tested at 10 to 100 μg per dose. The TPCS2a dose was 7.5 to 250 μg.
(§2) On day 0, prior to vaccination and on various days thereafter (e.g. day 6, 7, 8, 9, 14, 23, as indicated) mice were bled by tail bleeding and erythrocytes were removed by lysis, before analysis of antigen-specific CD8 T cells by flow cytometry. At the end of the experiment (typically 11, 12, 14 or 23 days), the mice were euthanized and the splenocytes analysed ex vivo. At various time points after the TPCS2a injection (0-48 hours), the mice were anaesthetised by intraperitoneal injection of a mixture of ketamine (25 mg/kg body weight) and xylazin (4 mg/kg) and placed on a light source (for illumination and activation of the photosensitiser TPCS2a). The light dose was 6 minutes, if not otherwise stated. The whole procedure is illustrated in the scheme of FIG. 6A. The illumination of mice using LumiSource™ is imaged in FIG. 6B.
The frequency of OVA-specific CD8 T-cells in blood was monitored by staining the cells with anti-CD8 antibody and H-2K^b/SIINFEKL ProS pentamer (Proimmune, Oxford, UK) for analysis by flow cytometry. The activation status of the cells was further analysed by testing the expression of CD44 and CD69 by flow cytometry. Intracellular staining for IFN-γ was done after overnight stimulation of splenocytes in 24-well plates with the CD8 epitope OVA257-264 (SIINFEKL) at 37 ° C. Brefeldin A was added during the last 4 hours. The cells were then washed and fixed with 4% formaldehyde in PBS for 10 min on ice. Anti-CD16/32 was added to block unspecific binding to Fc receptors. The cells were then permeabilised with 0.1% NP40 in PBS for 3 min and washed before staining with anti-IFN-γ, anti-CD8 and ant-CD44 antibodies (eBioscience or BD Pharmingen). The cells were acquired using FACSCanto (BD Biosciences, San Jose, USA) and analysed using FlowJo 8.5.2 software (Tree Star, Inc., Ashland, Oreg.).
For orientation: Flow cytometry measures light scatter and fluorescence of single cells or particles in a stream.

Data set [2] is described as follows: Local reaction at the illuminated injection site (Example 2). It counts as in vivo, C57BL/6 mice. The settings on record: higher TPCS2a doses; days 1-3 after illumination; data not shown. How it is done:
as §1, §2

With “Alexa488-labelled OVA: Alexa488-labelled OVA protein for fluorescence microscopy”, the “cellular uptake and distribution of Alexa488-labelled OVA” value in the data set on J774 cells is given as “located close to the cell surface in concise spherical shaped bodies”.
Regarding “tetraphenyl chlorin disulfonate [TPCS2a]”, the “localisation of antigen and photosensitiser” value with bone marrow DCs (before light, FIG. 5A) was “co-localisation of antigen and photosensitiser in DC endosomes”. Moreover, the “antigen distribution after light activation” value in the data set on bone marrow DCs (FIG. 5B) is recorded as “release of the antigen into the cytosol could be observed over 15 minutes”. In addition, in data set [1], the “OVA-specific immune response with increasing TPCS2a dose” value is recorded as “increased the measured OVA-specific immune response”. Moreover, in data set [2], the “local inflammation after illumination” value was “more local inflammation with transient erythema”. Also, the “relative localisation of antigen and TPCS2a after light activation” value in the data set with J774 cells (FIG. 9B) is “co-localised”. The “cellular uptake and distribution of Alexa488-labelled OVA” value in the data set on J774 cells was “diffuse green fluorescence”.
